We go through 30 compounds from patent publication US4853470A, “3-(piperidinyl)- and 3-(pyrrolidinyl)-1H-indazoles” (Hoechst-Roussel Pharmaceuticals, Inc., priority 1988, dated 1989).

Values joined by “and” are separate entries in the source; they are usually repeats but may differ in a detail not shown here. Identical values can stand only once. Like-named read-outs stand apart in the source and are kept apart here.

In assay [1] the test system is supramaximal electroshock (extensor tonus). Nature of the assay: supramaximal electroshock (SES) assay, anticonvulsant activity. The assay is classed as in vivo, male mouse. The settings on record: for ED50 SES: i.p.; for ED50 SES / ED50: 206 volts rms for 300 msec; for SES, % protection (normalized percent inhibition) at indicated dose: @ 60 mg/kg i.p.; for ED50: Mus musculus, ip. The method, then: The compounds of the invention are also useful as anticonvulsants due to their anticonvulsant activity in mammals. Anticonvulsant activity is measured in the male mouse using the supramaximal electroshock (SES) assay described in Arch. Int. Pharmacodyn. 92: 97-107, 1952. In this procedure groups of animals are used. Drugs are prepared using distilled water and, if insoluble, a surfactant is added. Control animals receive vehicle. Drugs are routinely administered intraperitoneally (i.p.). The dosage volume is 10 ml/kg. A primary screen is given a 30 minute pretreat. The animal's eyes are placed across the output terminals of an A.C. shocker that delivers 206 volts rms for 300 msec. Electrode paste coats the animals eyes at the point of contact with the terminals. […] Protection is expressed as normalized percent inhibition relative to vehicle control.
A time response is carried out using six animals/group. Animals are tested at 30, 60 and 120 minutes postdrug. Additional time periods are tested if indicated by previous tests. When the peak activity time has been determined, a dose response is initiated using 10 animals/group at that time period. The ED50 and 95% confidence interval are calculated by computer probit analysis.

Assay [2] concerns metrazol lethality (pentylenetetrazol). Nature of the assay: metrazol lethality (MTZ), anticonvulsant activity. The assay is classed as in vivo, male mice. The settings on record: for ED50: Mus musculus, ip; for MTZ, % protected at indicated dose: @ 60 mg/kg i.p. The method, then: Anticonvulsant activity is also measured using the metrazol lethality (MTZ). In this procedure groups of male mice are utilized. Test drugs are prepared using distilled water and, if insoluble, a suitable surfactant is added. The route of administration is i.p., but all administration are in volumes proportional to 10 cc/kg.
For a time response, 25 animals (5/group) are administered drug i.p. at 15, 30, 60 and 90 minutes prior to Metrazol treatment. Control animals (2/group) receive vehicle. Metrazol (pentylenetetrazol) is prepared at a concentration of 225 mg/10 ml in distilled water. Metrazol is administered s.c. at 225 mg/kg in distilled water. Those animals alive 15 minutes after Metrazol injection are considered protected. The time period with the greatest percent protected is said to be that of peak drug activity.
A dose range is run in the same manner as a time response except that 50 animals (10/group) are tested at the peak time of drug activity. One group receives vehicle. An ED50 is calculated by means of linear regression.

Assay [3] concerns apomorphine climbing. Nature of the assay: apomorphine climbing mice assay (antipsychotic activity). The assay is classed as in vivo, mice (CK-1 male). The following applies: for ED50: Mus musculus, ip, read-out: ED50, antipsychotic activity (climbing); for % decrease in climbing score at indicated dose: @ 10 mg/kg, i.p. The protocol: Antipsychotic activity is determined in the climbing mice assay by methods similar to those described by P. Protais, et al., Psychopharmacol., 50, 1 (1976) and B. Costall, Eur. J. Pharmacol., 50, 39 (1978).
The subject CK-1 male mice (23-27 grams) are group-housed under standard laboratory conditions. The mice are individually placed in wire mesh stick cages (4"×4" by 10") and are allowed one hour for adaptation and exploration of the new environment. Then apomorphine is injected subcutaneously at 1.5 mg/kg, a dose causing climbing in all subjects for 30 minutes. Compounds to be tested for antipsychotic activity are injected intraperitoneally (i.p.) 30 minutes prior to the apomorphine challenge at a screening dose of 10 mg/kg.
For evaluation of climbing, 3 readings are taken at 10, 20, and 30 minutes after apomorphine administration according to the following scale:
4 paws on bottom (no climbing)
2 paws on the wall (rearing)
4 paws on the wall (full climb)
Mice consistently climbing before the injection of apomorphine will be discarded.
With full-developed apomorphine climbing, the animals are hanging onto the cage walls, rather motionless, over longer periods of time. By contrast, climbs due to mere motor stimulation usually only last a few seconds.
The climbing scores are individually totaled (maximal score: 6 per mouse over 3 readings) and the total score of the control group (vehicle intraperitoneally-apomorphine subcutaneously) is set to 100%. ED50 values with 95% confidence limits, calculated by a Linear Regression Analysis of some of the instant 3-(piperidinyl)-1H-indazoles and 3-(pyrrolidinyl)-1H-indazoles as well as standard antipsychotics, are presented in Table 1.

Assay [4] relates to phenyl-p-quinone writhing. Nature of the assay: phenyl-p-quinone writhing assay (analgesia). Type of assay: in vivo, mice. The following applies: for ED50: Mus musculus, sc, read-out: ED50, inhibition of writhing; for inhibition of writhing at indicated dose: @ 20 mg/kg, s.c.
[5] abbreviates: 30 minutes prior to apomorphine 1.5 mg/kg s.c.

As for “1-(2-Phenylethyl)-3-(1-methyl-4-piperidinyl)-1H-indazole hydrobromide [Example 14]”, in assay [1], the “ED50 SES” value is reported as 34.9 mg/kg. With “1-(4-Nitrophenyl)-3-(1-methyl-4-piperidinyl)-1H-indazole hydrochloride [Example 7]”, the “SES, % protection (normalized percent inhibition) at indicated dose” value in assay [1] turned out to be 0%. Consider “1-(6-Fluoro-1,2-benzisoxazole-3-propyl)-3-(1-methyl-4-piperidinyl)-1H-indazole maleate [Example 11]”, for which, in assay [2] (i.p., Metrazol 225 mg/kg s.c.), the “ED50 MTZ” value worked out at 79.6 mg/kg.

Regarding “1-Hydroxymethyl-3-(1-methyl-4-piperidinyl)-1H-indazole [Example 10]”, the “ED50 SES” value in assay [1] is listed as 35.3 mg/kg. Usually ED50 stands for the midpoint of the dose-response relation. Take `CC(=O)n1nc(C2CCN(C)CC2)c2ccccc21.Cl` [1-Acetyl-3-(1-methyl-4-piperidinyl)-1H-indazole hydrochloride]: the ED50 in assay [3] is 5.4 mg/kg; in assay [4] it was 0.71 mg/kg.

Take `CN1CCC(c2nn(C(=O)c3ccccc3)c3ccccc23)CC1.Cl` [1-Benzoyl-3-(1-methyl-4-piperidinyl)-1H-indazole hydrochloride]: the ED50 in assay [3] (setting [5]) amounted to 6.5 mg/kg; in assay [4] (approximately 50% inhibition), 0.85 mg/kg. Consider `CN1CCC(c2nn(C(=O)c3ccccc3)c3cc(F)ccc23)CC1.O=C(O)/C=C/C(=O)O` [1-Benzoyl-6-fluoro-3-(1-methyl-4-piperidinyl)-1H-indazole fumarate], for which the ED50 in assay [3] (setting [5]) was found to be 1.8 mg/kg; in assay [4] (approximately 50% inhibition), 0.17 mg/kg.

`Br.CN1CCC(c2nn(CC3CC3)c3ccccc23)CC1` [1-Cyclopropylmethyl-3-(1-methyl-4-piperidinyl)-1H-indazole hydrobromide]: in assay [3], the “% decrease in climbing score at indicated dose” value (“% decrease in climbing score” for short) came to 36%. Further, the ED50 in assay [4] (approximately 50% inhibition) was determined as 1.1 mg/kg. `Br.CCn1nc(C2CCN(C)CC2)c2ccccc21` [1-Ethyl-3-(1-methyl-4-piperidinyl)-1H-indazole hydrobromide]: the “% decrease in climbing score” value in assay [3] was found to be 41%. The ED50 in assay [4] came out at 0.65 mg/kg. For the compound `Br.CN1CCC(c2nn(Cc3ccccc3)c3ccccc23)CC1` [1-Phenylmethyl-3-(1-methyl-4-piperidinyl)-1H-indazole hydrobromide], the “inhibition of writhing at indicated dose” value in assay [4] (hydrobromide) was 75% and 96%. Take `CN(C)CCCn1nc(C2CCN(C)CC2)c2ccccc21.O=C(O)/C=C/C(=O)O.O=C(O)/C=C/C(=O)O` [1-[3-(Dimethylamino)propyl]-3-(1-methyl-4-piperidinyl)-1H-indazole difumarate]: the “inhibition of writhing at indicated dose” value in assay [4] is 15%. Take `CN1CCC(c2nn(-c3ccc(C(F)(F)F)cc3)c3ccccc23)CC1.Cl` [3-(1-Methyl-4-piperidinyl)-1-[4-(trifluoromethyl)phenyl]-1H-indazole hydrochloride]: the ED50 in assay [4] (approximately 50% inhibition) is 9.8 mg/kg. Turning to `CN1CCC(c2nn(C(=O)OCC(Cl)(Cl)Cl)c3ccccc23)CC1.Cl` [3-(1-Methyl-4-piperidinyl)-1-trichloroethoxycarbonyl-1H-indazole hydrochloride], the “% decrease in climbing score” value in assay [3] was 46%. Take `CN1CCC(c2n[nH]c3ccccc23)CC1` [3-(1-methyl-4-piperidinyl)-1H--indazole, 3-(1-Methyl-4-piperidinyl)-1H-indazole]: the ED50 in assay [3] was 4.5 mg/kg; in assay [4] it was 0.26 mg/kg.

For the compound `Fc1ccc(C(CCCN2CCC(c3n[nH]c4ccccc34)CC2)c2ccc(F)cc2)cc1` [3-[1-[4,4-bis(4-Fluorophenyl)butyl]-4-piperidinyl]-1H-indazole], the ED50 in assay [3] (setting [5]) turned out to be 7.4 mg/kg. Moreover, the “inhibition of writhing at indicated dose” value in assay [4] was found to be 31%.

For `CNC(=O)N1CCC(c2nn(-c3ccccc3F)c3ccccc23)CC1` [Compound 1], the ED50 in assay [2] (Metrazol 225 mg/kg s.c.) amounted to 49 mg/kg; in assay [1], 37 mg/kg. With `O=C(Nc1ccccc1)N1CCC(c2nn(-c3ccccc3)c3cc(F)ccc23)CC1` [Compound 2, N-Phenyl-4-(6-fluoro-1-phenyl-1H-indazol-3-yl)piperidine-1-carboxamide], the “MTZ, % protected at indicated dose” value in assay [2] stood at 20%. Moreover, the “SES, % protection (normalized percent inhibition) at indicated dose” value in assay [1] is recorded as 0%. Regarding `Br.NC(=O)N1CCC(c2nn(-c3ccc(C(F)(F)F)cc3)c3ccccc23)CC1` [Compound 3, 4-[1-[4-(Trifluoromethyl)phenyl]-1H-indazol-3-yl]-1-piperidine carboxamide hydrobromide], the ED50 was found to be 27.4 mg/kg in assay [2] (Metrazol 225 mg/kg s.c.) and 10.9 mg/kg in assay [1]. With `CNC(=O)N1CCC(c2nn(-c3ccccc3)c3cc(F)ccc23)CC1` [Compound 4, N-Methyl-4-(6-fluoro-1-phenyl-1H-indazol-3-yl)piperidine-1-carboxamide], in assay [2], the “MTZ, % protected at indicated dose” value worked out at 0%. Moreover, in assay [1], the ED50 was determined as 64.9 mg/kg. Take `Fc1ccc2c(C3CCN(C(=S)Nc4ccccc4)CC3)nn(-c3ccccc3)c2c1` [Compound 5, N-Phenyl-4-(6-fluoro-1-phenyl-1H-indazol-3-yl)piperidine-1-carbothioamide]: the “MTZ, % protected at indicated dose” value in assay [2] worked out at 17%. Besides, the “SES, % protection (normalized percent inhibition) at indicated dose” value in assay [1] amounted to 0%. On to `CNC(=O)N1CCC(c2nn(-c3ccc(C(F)(F)F)cc3)c3ccccc23)CC1` [Compound 6], for which the “MTZ, % protected at indicated dose” value in assay [2] was found to be 20%. In assay [1], this compound registered an ED50 of 44.9 mg/kg. For `CC(=O)N1CCC(c2nn(-c3ccccc3)c3cc(Br)ccc23)CC1` [Compound 8, 1-Acetyl-4-(6-bromo-1-phenyl-1H-indazol-3-yl)piperidine], in assay [2], the “MTZ, % protected at indicated dose” value was 0%. In assay [1], the “SES, % protection (normalized percent inhibition) at indicated dose” value was 33%. Consider `CNC(=O)N1CCC(c2nn(-c3ccc(F)cc3)c3ccccc23)CC1` [Compound 9], for which the ED50 is 45.5 mg/kg in assay [2] (Metrazol 225 mg/kg s.c.) and 31.7 mg/kg in assay [1].

On to `O=CN1CCC(c2nn(-c3ccc(C(F)(F)F)cc3)c3ccccc23)CC1` [Compound 12], for which the ED50 in assay [2] (Metrazol 225 mg/kg s.c.) came out at 60.9 mg/kg; in assay [1], 27.2 mg/kg. As for `O=CN1CCC(c2nn(-c3ccc(F)cc3)c3ccccc23)CC1` [Compound 13], the “MTZ, % protected at indicated dose” value in assay [2] turned out to be 40%. Also, the ED50 in assay [1] amounted to 24.7 mg/kg. Take `NC(=O)N1CCC(c2nn(-c3ccccc3)c3cc(Cl)ccc23)CC1` [Compound 15, 4-(6-Chloro-1-phenyl-1H-indazol-3-yl)piperidine-1-carboxamide]: the ED50 in assay [2] (Metrazol 225 mg/kg s.c.) came out at 31.2 mg/kg; in assay [1] it was 48.1 mg/kg.

Take `CN(C)C(=O)N1CCC(c2nn(-c3ccc(C(F)(F)F)cc3)c3ccccc23)CC1` [Compound 16]: the “MTZ, % protected at indicated dose” value in assay [2] is 20%. Also, the “SES, % protection (normalized percent inhibition) at indicated dose” value in assay [1] is listed as 20%. With `O=C(CCCN1CCC(O)(c2ccc(Cl)cc2)CC1)c1ccc(F)cc1` [haloperidol, reference compound], in assay [3], the ED50 was 0.11 mg/kg. Regarding `CC(C)=CCN1CCC2(C)c3cc(O)ccc3CC1C2C` (stereo not shown) [pentazocine, reference compound], the ED50 in assay [4] came out at 1.3 mg/kg. Still for that read-out and setting: under `CCC(=O)O[C@](Cc1ccccc1)(c1ccccc1)[C@H](C)CN(C)C` [propoxyphene, reference compound] stands 3.9 mg/kg.
